According to patent US20120065210A1, “SUBSTITUTED HEXAHYDROPYRROLO[1,2-C]IMIDAZOLONES” (priority 2010, published 2012):

What follows are compounds tested against interaction between p53 and MDM2 proteins (recombinant GST-tagged MDM2, p53 peptide) (Homo sapiens, UniProt Q00987) (assay: HTRF assay of inhibition of the p53-MDM2 interaction (GST-MDM2 / biotinylated p53 peptide)). Conditions: bsa: 0.02%.
Assay type: binding
Procedure: The ability of the compounds to inhibit the interaction between p53 and MDM2 proteins was measured by an HTRF (homogeneous time-resolved fluorescence) assay in which recombinant GST-tagged MDM2 binds to a peptide that resembles the MDM2-interacting region of p53. Binding of GST-MDM2 protein and p53-peptide (biotinylated on its N-terminal end) is registered by the FRET (fluorescence resonance energy transfer) between Europium (Eu)-labeled anti-GST antibody and streptavidin-conjugated Allophycocyanin (APC).
Add 10 uL diluted compounds (1:5 dilution in reaction buffer) to each well, mix by shaking Add 20 uL biotinylated p53 peptide (180 nM working solution) in reaction buffer to each well and mix on shaker. Incubate at 37° C. for 1 h. Add 20 uL streptavidin-APC and Eu-anti-GST antibody mixture (6 nM Eu-anti-GST and 60 nM streptavidin-APC working solution) in TBS buffer with 0.2% BSA, shake at room temperature for 30 minutes and read using a TRF-capable plate reader at
665 and 615 nm (Victor 5, Perkin ElmerWallac), If not specified, the reagents were purchased from Sigma Chemical Co.

Sequence of interaction between p53 and MDM2 proteins (recombinant GST-tagged MDM2, p53 peptide) (Q00987 whole entry): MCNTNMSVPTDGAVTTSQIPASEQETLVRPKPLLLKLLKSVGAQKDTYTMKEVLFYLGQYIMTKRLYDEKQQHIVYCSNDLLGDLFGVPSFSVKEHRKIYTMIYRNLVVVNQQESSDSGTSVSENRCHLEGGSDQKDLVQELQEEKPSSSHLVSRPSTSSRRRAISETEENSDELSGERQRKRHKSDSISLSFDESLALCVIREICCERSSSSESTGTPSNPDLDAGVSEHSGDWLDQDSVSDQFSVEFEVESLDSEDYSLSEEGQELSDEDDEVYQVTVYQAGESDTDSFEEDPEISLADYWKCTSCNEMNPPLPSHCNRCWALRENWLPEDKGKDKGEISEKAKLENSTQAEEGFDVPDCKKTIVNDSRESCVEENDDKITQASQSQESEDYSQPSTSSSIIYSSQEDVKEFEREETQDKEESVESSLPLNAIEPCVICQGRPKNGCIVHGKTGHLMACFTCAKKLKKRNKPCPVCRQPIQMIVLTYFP

Q: With `CC(C)(C)C[C@@H]1N2[C@H](CC3CCCCC3)N(c3ccc(C(=O)O)cc3)C(=O)[C@H]2[C@H](c2cccc(Cl)c2F)[C@@]1(C#N)c1ccc(Cl)cc1F` (racemic) [Example 35, rac-4-[(3S,5S,6R,7S,7aR)-7-(3-chloro-2-fluoro-phenyl)-6-(4-chloro-2-fluoro-phenyl)-6-cyano-3-cyclohexylmethyl-5-(2,2-dimethyl-propyl)-1-oxo-tetrahydro-pyrrolo[1,2-c]imidazol-2-yl]-benzoic acid] as the compound, how does the IC50 read?
A: 15 nM

Q: How did the IC50 turn out when `COc1cc(N2CN3[C@@H](CC(C)(C)C)[C@](C#N)(c4ccc(Cl)cc4F)[C@@H](c4cccc(Cl)c4F)[C@@H]3C2=O)ccc1C(=O)O` [Example 1, 4-[(5S,6R,7S,7aR)-7-(3-chloro-2-fluoro-phenyl)-6-(4-chloro-2-fluoro-phenyl)-6-cyano-5-(2,2-dimethyl-propyl)-1-oxo-tetrahydro-pyrrolo[1,2-c]imidazol-2-yl]-2-methoxy-benzoic acid] was run?
A: 8 nM

Q: Which IC50 does the source give for `CC(C)(C)C[C@@H]1N2CN(c3ccc(C(=O)O)cc3)C(=O)[C@H]2[C@H](c2cccc(Cl)c2F)[C@@]1(C#N)c1ccc(Cl)cc1F` [Example 2, 4-[(5S,6R,7S,7aR)-7-(3-chloro-2-fluoro-phenyl)-6-(4-chloro-2-fluoro-phenyl)-6-cyano-5-(2,2-dimethyl-propyl)-1-oxo-tetrahydro-pyrrolo[1,2-c]imidazol-2-yl]-benzoic acid] here?
A: 8 nM

Q: With `COc1cc(C(=O)O)ccc1N1CN2[C@@H](CC(C)(C)C)[C@](C#N)(c3ccc(Cl)cc3F)[C@@H](c3cccc(Cl)c3F)[C@@H]2C1=O` [Example 3, 4-[(5S,6R,7S,7aR)-7-(3-chloro-2-fluoro-phenyl)-6-(4-chloro-2-fluoro-phenyl)-6-cyano-5-(2,2-dimethyl-propyl)-1-oxo-tetrahydro-pyrrolo[1,2-c]imidazol-2-yl]-3-methoxy-benzoic acid] as the compound, how does the IC50 read?
A: 13 nM

Q: With `CC(C)(C)C[C@@H]1N2CN(CC(=O)O)C(=O)[C@H]2[C@H](c2cccc(Cl)c2F)[C@@]1(C#N)c1ccc(Cl)cc1F` [Example 4, [(5S,6R,7S,7aR)-7-(3-chloro-2-fluoro-phenyl)-6-(4-chloro-2-fluoro-phenyl)-6-cyano-5-(2,2-dimethyl-propyl)-1-oxo-tetrahydro-pyrrolo[1,2-c]imidazol-2-yl]-acetic acid] as the compound, how does the IC50 read?
A: 10 nM

Q: Which IC50 does the source give for `CC(C)(C)C[C@@H]1N2CN(c3ccc(C(=O)O)cc3O)C(=O)[C@H]2[C@H](c2cccc(Cl)c2F)[C@@]1(C#N)c1ccc(Cl)cc1F` [Example 6, 4-[(5S,6R,7S,7aR)-7-(3-chloro-2-fluoro-phenyl)-6-(4-chloro-2-fluoro-phenyl)-6-cyano-5-(2,2-dimethyl-propyl)-1-oxo-tetrahydro-pyrrolo[1,2-c]imidazol-2-yl]-3-hydroxy-benzoic acid] here?
A: 13 nM

Q: `CC(C)(C)C[C@@H]1N2CN(c3ccc(C(=O)O)c(C(F)(F)F)c3)C(=O)[C@H]2[C@H](c2cccc(Cl)c2F)[C@@]1(C#N)c1ccc(Cl)cc1F` [Example 7, 4-[(5S,6R,7S,7aR)-7-(3-chloro-2-fluoro-phenyl)-6-(4-chloro-2-fluoro-phenyl)-6-cyano-5-(2,2-dimethyl-propyl)-1-oxo-tetrahydro-pyrrolo[1,2-c]imidazol-2-yl]-2-trifluoromethyl-benzoic acid] was tested. Which IC50 did it give?
A: 21 nM

Q: With `C=CCC[C@@H]1N(c2ccc(C(=O)O)c(OC)c2)C(=O)[C@H]2[C@H](c3cccc(Cl)c3F)[C@@](C#N)(c3ccc(Cl)cc3F)[C@H](CC(C)(C)C)N12` [Example 41, 4-[(3S,5S,6R,7S,7aR)-3-but-3-enyl-7-(3-chloro-2-fluoro-phenyl)-6-(4-chloro-2-fluoro-phenyl)-6-cyano-5-(2,2-dimethyl-propyl)-1-oxo-tetrahydro-pyrrolo[1,2-c]imidazol-2-yl]-2-methoxy-benzoic acid] as the compound, how does the IC50 read?
A: 9 nM
